Assay results reported in patent publication US20220089575A1, “FARNESOID X RECEPTOR AGONISTS AND USES THEREOF” (Metacrine, Inc., priority 2017, published 2022).

target: T1, hFXR (Homo sapiens, UniProt Q96RI1); test: In Vitro FXR Assay (TK): TK-ECRE-luc reporter in transfected CV-1 cells; type: cell-based; conditions: 18 hrs, luminescence, maximum efficacy of <25% of the Fexarmine control classified as '+'
T1 construct: expressed in transfected cells; host or cells: CV-1 cells
T1 sequence (Q96RI1 1-486): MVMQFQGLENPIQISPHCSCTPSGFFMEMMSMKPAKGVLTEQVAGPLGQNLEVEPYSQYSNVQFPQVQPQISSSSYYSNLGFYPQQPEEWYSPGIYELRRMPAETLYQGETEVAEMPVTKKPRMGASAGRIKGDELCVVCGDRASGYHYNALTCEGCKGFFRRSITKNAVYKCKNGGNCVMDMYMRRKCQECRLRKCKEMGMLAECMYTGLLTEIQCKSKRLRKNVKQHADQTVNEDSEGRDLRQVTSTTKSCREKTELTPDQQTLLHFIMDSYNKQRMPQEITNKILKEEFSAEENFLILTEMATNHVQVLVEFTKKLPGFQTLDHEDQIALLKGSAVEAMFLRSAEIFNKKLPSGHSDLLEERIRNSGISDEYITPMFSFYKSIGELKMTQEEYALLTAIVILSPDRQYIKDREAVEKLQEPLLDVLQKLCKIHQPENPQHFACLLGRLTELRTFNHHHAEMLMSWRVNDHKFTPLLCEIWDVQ
T1 sequence (P19793 1-462 partner): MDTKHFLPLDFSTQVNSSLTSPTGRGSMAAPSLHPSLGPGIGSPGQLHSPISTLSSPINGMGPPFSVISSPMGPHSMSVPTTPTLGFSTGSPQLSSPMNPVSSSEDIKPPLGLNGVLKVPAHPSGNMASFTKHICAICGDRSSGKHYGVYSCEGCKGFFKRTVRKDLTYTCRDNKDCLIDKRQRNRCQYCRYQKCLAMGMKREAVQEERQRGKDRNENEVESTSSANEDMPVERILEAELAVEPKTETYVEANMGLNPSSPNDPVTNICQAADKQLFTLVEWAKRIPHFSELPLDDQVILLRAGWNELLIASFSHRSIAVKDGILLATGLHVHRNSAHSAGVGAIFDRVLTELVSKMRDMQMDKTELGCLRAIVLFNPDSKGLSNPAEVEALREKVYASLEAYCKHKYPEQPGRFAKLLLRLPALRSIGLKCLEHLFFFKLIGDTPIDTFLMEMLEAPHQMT
Procedure, shortened: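 Transiently transfected monkey CV-1 cells (hFXR, hRXR, TK-ECRE-luciferase, YFP control plasmid), held in stripped-serum DMEM, received compound dilutions from DMSO for 18 h at 37 °C. Activity was taken from luminescence of the cell lysates.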

EC50, ≤ 250 nM:
CNC(=O)O[C@H]1CC[C@H](C(=O)N(C[C@H]2CC[C@H](c3cnc(OC)c(C)c3)CC2)c2cccc(-c3cnn(C4CC4)c3)c2)CC1 [Compound 5.16, trans-4-((3-(1-Cyclopropyl-1H-pyrazol-4-yl)phenyl)((trans-4-(6-methoxy-5-methylpyridin-3-yl)cyclohexyl)methyl)carbamoyl)cyclohexyl methylcarbamate]
CNC(=O)O[C@H]1CC[C@H](C(=O)N(C[C@H]2CC[C@H](c3ccc(OC)c(C#N)c3)CC2)c2cc(-c3cnn(C4CC4)c3)ccn2)CC1 [Compound 5.17, trans-4-(((trans-4-(3-Cyano-4-methoxyphenyl)cyclohexyl)methyl)(4-(1-cyclopropyl-1H-pyrazol-4-yl)pyridin-2-yl)carbamoyl)cyclohexyl methylcarbamate]
CNC(=O)O[C@H]1CC[C@H](C(=O)N(C[C@H]2CC[C@H](c3ccc(OC)c(C#N)c3)CC2)c2cc(-c3cnn(C(C)C)c3)ccn2)CC1 [Compound 5.18, trans-4-(((trans-4-(3-Cyano-4-methoxyphenyl)cyclohexyl)methyl)(4-(1-isopropyl-1H-pyrazol-4-yl)pyridin-2-yl)carbamoyl)cyclohexyl methylcarbamate]
CNC(=O)O[C@H]1CC[C@@H](C(=O)N(CC2CCC(c3ccc(OC)c(C#N)c3)CC2)c2cc(-c3cnn(C(C)C)c3)ccn2)CC1 (stereo partly drawn) [Compound 5.19, cis-4-(((4-(3-Cyano-4-methoxyphenyl)cyclohexyl)methyl)(4-(1-isopropyl-1H-pyrazol-4-yl)pyridin-2-yl)carbamoyl)cyclohexyl methylcarbamate]
CNC(=O)O[C@H]1CC[C@H](C(=O)N(C[C@H]2CC[C@H](c3ccc(OC)c(C)n3)CC2)c2cccc(-c3cnn(C(C)(C)C)c3)c2)CC1 [Compound 5.20, trans-4-((3-(1-(tert-Butyl)-1H-pyrazol-4-yl)phenyl)((trans-4-(5-methoxy-6-methylpyridin-2-yl)cyclohexyl)methyl)carbamoyl)cyclohexyl methylcarbamate]
CNC(=O)O[C@H]1CC[C@H](C(=O)N(C[C@H]2CC[C@H](c3ccc(OC)c(C)n3)CC2)c2cccc(-c3cnn(C4CCC4)c3)c2)CC1 [Compound 5.21, trans-4-((3-(1-Cyclobutyl-1H-pyrazol-4-yl)phenyl)((trans-4-(5-methoxy-6-methylpyridin-2-yl)cyclohexyl)methyl)carbamoyl)cyclohexyl methylcarbamate]
COc1ccc([C@H]2CC[C@H](CN(c3cccc(-c4cnn(C5CC5)c4)c3)C(=O)[C@H]3CC[C@H](OC(=O)N(C)C)CC3)CC2)cc1C [Compound 5.22, trans-4-((3-(1-Cyclopropyl-1H-pyrazol-4-yl)phenyl)((trans-4-(4-methoxy-3-methylphenyl)cyclohexyl)methyl)carbamoyl)cyclohexyl dimethylcarbamate]
CNC(=O)O[C@H]1CC[C@H](C(=O)N(C[C@H]2CC[C@H](c3ccc(OC)c(C#N)n3)CC2)c2cccc(-c3cnn(C4CC4)c3)c2)CC1 [Compound 5.23, trans-4-(((trans-4-(6-Cyano-5-methoxypyridin-2-yl)cyclohexyl)methyl)(3-(1-cyclopropyl-1H-pyrazol-4-yl)phenyl)carbamoyl)cyclohexyl methylcarbamate]
CNC(=O)O[C@H]1CC[C@H](C(=O)N(C[C@H]2CC[C@H](c3ccc(OC)c(C)n3)CC2)c2cc(-c3cnn(C(C)C)c3)ccn2)CC1 [Compound 5.24, trans-4-((4-(1-Isopropyl-1H-pyrazol-4-yl)pyridin-2-yl)((trans-4-(5-methoxy-6-methylpyridin-2-yl)cyclohexyl)methyl)carbamoyl)cyclohexyl methylcarbamate]
CCNC(=O)O[C@H]1CC[C@H](C(=O)N(C[C@H]2CC[C@H](c3ccc(OC)c(C)n3)CC2)c2cc(-c3cnn(C(C)C)c3)ccn2)CC1 [Compound 5.25, trans-4-((4-(1-Isopropyl-1H-pyrazol-4-yl)pyridin-2-yl)((trans-4-(5-methoxy-6-methylpyridin-2-yl)cyclohexyl)methyl)carbamoyl)cyclohexyl ethylcarbamate]
CNC(=O)O[C@H]1CC[C@H](C(=O)N(C[C@H]2CC[C@H](c3ccc(OC)c(C#N)n3)CC2)c2cc(-c3cnn(C(C)C)c3)ccn2)CC1 [Compound 5.26, trans-4-(((trans-4-(6-Cyano-5-methoxypyridin-2-yl)cyclohexyl)methyl)(4-(1-isopropyl-1H-pyrazol-4-yl)pyridin-2-yl)carbamoyl)cyclohexyl methylcarbamate]
CNC(=O)O[C@H]1CC[C@H](C(=O)N(C[C@H]2CC[C@H](c3ccc(OC)c(C#N)n3)CC2)c2cc(-c3cnn(C4CC4)c3)ccn2)CC1 [Compound 5.27, trans-4-(((trans-4-(6-Cyano-5-methoxypyridin-2-yl)cyclohexyl)methyl)(4-(1-cyclopropyl-1H-pyrazol-4-yl)pyridin-2-yl)carbamoyl)cyclohexyl methylcarbamate]
CNC(=O)O[C@H]1CC[C@H](C(=O)N(C[C@H]2CC[C@H](c3ccc(OC)c(C#N)n3)CC2)c2cccc(-c3cnn(C(C)C)c3)c2)CC1 [Compound 5.28, trans-4-(((trans-4-(6-Cyano-5-methoxypyridin-2-yl)cyclohexyl)methyl)(3-(1-isopropyl-1H-pyrazol-4-yl)phenyl)carbamoyl)cyclohexyl methylcarbamate]
CCNC(=O)O[C@H]1CC[C@H](C(=O)N(C[C@H]2CC[C@H](c3ccc(OC)c(C#N)n3)CC2)c2cc(-c3cnn(C(C)C)c3)ccn2)CC1 [Compound 5.29, trans-4-(((trans-4-(6-Cyano-5-methoxypyridin-2-yl)cyclohexyl)methyl)(4-(1-isopropyl-1H-pyrazol-4-yl)pyridin-2-yl)carbamoyl)cyclohexyl ethylcarbamate]
CNC(=O)O[C@H]1CC[C@H](C(=O)N(C[C@H]2CC[C@H](c3ccc(OC)c(C)c3)CC2)c2cccc(-c3coc(C(C)C)n3)c2)CC1 [Compound 5.30, trans-4-((3-(2-Isopropyloxazol-4-yl)phenyl)((trans-4-(4-methoxy-3-methylphenyl)cyclohexyl)methyl)carbamoyl)cyclohexyl methylcarbamate]
CNC(=O)O[C@H]1CC[C@H](C(=O)N(C[C@H]2CC[C@H](c3ccc(OC)c(C)n3)CC2)c2cccc(-c3coc(C(C)C)n3)c2)CC1 [Compound 5.31, trans-4-((3-(2-Isopropyloxazol-4-yl)phenyl)((trans-4-(5-methoxy-6-methylpyridin-2-yl)cyclohexyl)methyl)carbamoyl)cyclohexyl methylcarbamate]
CNC(=O)O[C@H]1CC[C@H](C(=O)N(C[C@H]2CC[C@H](c3ccc(OC)c(C)n3)CC2)c2cccc(-c3coc(C4CC4)n3)c2)CC1 [Compound 5.32, trans-4-((3-(2-Cyclopropyloxazol-4-yl)phenyl)((trans-4-(5-methoxy-6-methylpyridin-2-yl)cyclohexyl)methyl)carbamoyl)cyclohexyl methylcarbamate]
CNC(=O)O[C@H]1CC[C@H](C(=O)N(C[C@H]2CC[C@H](c3ccc(OC)c(C)c3)CC2)c2cc(-c3coc(C4CC4)n3)ccn2)CC1 [Compound 5.33, trans-4-((4-(2-Cyclopropyloxazol-4-yl)pyridine-2-yl)((trans-4-(4-methoxy-3-methylphenyl)cyclohexyl)methyl)carbamoyl)cyclohexyl methylcarbamate]
CNC(=O)O[C@H]1CC[C@H](C(=O)N(C[C@H]2CC[C@H](c3ccc(OC)c(C)n3)CC2)c2cc(-c3coc(C4CC4)n3)ccn2)CC1 [Compound 5.34, trans-4-((4-(2-Cyclopropyloxazol-4-yl)pyridine-2-yl)((trans-4-(5-methoxy-6-methylpyridin-2-yl)cyclohexyl)methyl)carbamoyl)cyclohexyl methylcarbamate]
CNC(=O)O[C@H]1CC[C@H](C(=O)N(C[C@H]2CC[C@H](c3ccc(OC)c(C#N)c3)CC2)c2cccc(-c3coc(C4CC4)n3)c2)CC1 [Compound 5.35, trans-4-(((trans-4-(3-Cyano-4-methoxyphenyl)cyclohexyl)methyl)(3-(2-cyclopropyloxazol-4-yl)phenyl)carbamoyl)cyclohexyl methylcarbamate]
